Reference: ChEMBL document CHEMBL2062367, “Stigonemapeptin, an Ahp-containing depsipeptide with elastase inhibitory activity from the bloom-forming freshwater cyanobacterium Stigonema sp” (J Nat Prod, 2012)
The source made the active and inactive calls.

Columns and labels:
Homo sapiens = species on record: Homo sapiens; test: Inhibition of 20S proteasome at 25 uM
Sus scrofa = species on record: Sus scrofa; test: Inhibition of pig pancreatic trypsin using Nalpha-benzoyl-DL-arginine-4-nitroanilide as substrate at 10 uM incubated for 15 mins prior to substrate addition measured ever 30 secs for 30 mins by spectroscopy
HT-29 = test: Cytotoxicity against human HT-29 cells at 25 uM; assay type: functional, cell-based

C/C=C1/NC(=O)[C@@H](NC(=O)[C@H](CCC(N)=O)NC(=O)[C@@H]2CCCN2C=O)[C@@H](C)OC(=O)[C@H](C(C)C)NC(=O)[C@H](Cc2ccc(O)cc2)N(C)C(=O)[C@H](Cc2ccccc2)N2C(=O)[C@H](CC[C@H]2O)NC1=O
inactive: inhibition (Homo sapiens) | inhibition (Sus scrofa) | Activity (HT-29)
